Laboratory results taken from US8268854B2, “Aza-beta-carbolines and methods of using same” (The UWM Research Foundation, Inc., priority 2008, dated 2012).
Structures can show the parent of a compound that is named as a salt. Where two headings read alike, the source gives them in different places.

Columns and labels:
Dopamine receptor D2 = biological target: T1, Dopamine receptor D2 (Homo sapiens, UniProt P14416); experiment: PDSP secondary radioligand binding assay
T1 construct: expressed in transfected cells
Procedure: Primary and secondary radioligand binding assays are performed. In general, the primary assay is run at very high ligand (compound) concentration as a broad screen to determine whether a compound binds to a particular receptor. If greater than 50% inhibition at 10 μM (high concentration of compound) at a particular receptor is determined, a secondary assay is performed on that receptor. Data from the secondary assay is the binding affinity (Ki value).
This assay is used to test binding to receptors such as the serotonin receptors: 5-HT1A, 5-HT1B, 5-HT1D, 5-HT1E, 5-HT2A, 5-HT2B, 5-HT2C, 5-HT3, 5-HT5A, 5-HT6 and 5-HT7. The protocol is adapted from Roth et al. J. Pharmacol. Exp. Ther. 1986, 238, 480-485 and Roth et al. J. Pharmacol. Exp. Ther. 1994, 268, 1403-1410. The assay buffer is Standard Binding Buffer (50 mM Tris-HCl, 10 mM MgCl2, 0.1 mM EDTA, pH 7.4). The membrane fraction source is transiently or stably transfected cell lines (e.g., HEK293, COS, CHO, NIH3T3).
A solution of the compound to be tested is prepared as a 1 mg/mL stock in Standard Binding Buffer or DMSO according to its solubility. A similar stock of a reference compound (positive control) is also prepared.
Radioligand (see Table 41) is diluted to five times the assay concentration (see Table 21) in Standard Binding Buffer. […]
The 250 μL reactions are incubated at room temperature and shielded from light (to prevent photolysis of light-sensitive ligands) for 1.5 hours, then harvested by rapid filtration onto Whatman GF/B glass fiber filters pre-soaked with 0.3% polyethyleneimine using a 96-well Brandel harvester. […] The tubes are capped, labeled, and counted by liquid scintillation counting. For higher throughput assays, bound radioactivity is harvested onto 0.3% polyethyleneimine-treated, 96-well filter mats using a 96-well Filtermate harvester. The filter mats are dried, then scintillant is melted onto the filters, and the radioactivity retained on the filters is counted in a Microbeta scintillation counter. […]

[1] = biological target: T2, GABAA receptor α3 subtype with β2 and γ2 subunits (Homo sapiens, UniProt P18507+P34903); experiment: Competition binding assay with [3H]flunitrazepam
T2 construct: expressed in transfected cells; host or cells: HEKT cell line, transient transfection with Fugene 6
Excerpt: (§1) Bound radioactivity is quantified by liquid scintillation counting.

[2] = biological target: T3, GABAA receptor α2 subtype with β2 and γ2 subunits (Homo sapiens, UniProt P18507+P47869); experiment: Competition binding assay with [3H]flunitrazepam
T3 construct: expressed in transfected cells; host or cells: HEKT cell line, transient transfection with Fugene 6
Excerpt: as §1

[3] = biological target: T4, GABAA receptor α1 subtype with β2 and γ2 subunits (Homo sapiens, UniProt P14867+P18507); experiment: Competition binding assay with [3H]flunitrazepam
T4 construct: expressed in transfected cells; host or cells: HEKT cell line, transient transfection with Fugene 6
Excerpt: as §1

[4] = biological target: T5, GABAA receptor α5 subtype with β2 and γ2 subunits (Homo sapiens, UniProt P18507+P31644); experiment: Competition binding assay with [3H]flunitrazepam
T5 construct: expressed in transfected cells; host or cells: HEKT cell line, transient transfection with Fugene 6
Excerpt: as §1

Ki ([1]; [3H]flunitrazepam, α3β2γ2, HEKT cells, read-out: GABAA RECEPTOR BINDING α3) [nM]	Ki ([2]; [3H]flunitrazepam, α2β2γ2, HEKT cells, read-out: GABAA RECEPTOR BINDING α2) [nM]	Ki ([3]; [3H]flunitrazepam, α1β2γ2, HEKT cells, read-out: GABAA RECEPTOR BINDING α1) [nM]	Ki ([4]; [3H]flunitrazepam, α5β2γ2, HEKT cells, read-out: GABAA RECEPTOR BINDING α5) [nM]	SMILES	Ki (Dopamine receptor D2) [nM]	Ki [1] [nM]	Ki [2] [nM]	Ki [3] [nM]	Ki [4] [nM]
–	–	–	–	CCCOc1cc2c(cn1)[nH]c1cnccc12 [Compound 4, 3-Propoxy pyridino[4′,3′-4,5]pyrrolo[2,3-c]pyridine hydrochloride]	> 10000	1.49	6.31	5.79	43.1
4.04	0.33	9.86	12.2	CCCOc1cc2c(cn1)[nH]c1ccncc12 [Compound 2, 8-Propoxypyridino[4′,3′-5,4]pyrrolo[3,2-c]pyridine hydrochloride]	> 10000	–	–	–	–
